According to PubChem BioAssay AID248 (DTP/NCI, 2004):
Several values for one entry are separate records, joined by “and”; a condition that tells them apart may be missing. Identical values can stand only once. Toxic doses and inconclusive results are not listed. Cut-off read from the data, not from the text of the source: active = T/C of 150% or more; inactive = T/C below 125%.

System: L1210 leukemia ip in BDF1 mice, survival T/C
Test: NCI In Vivo Anticancer Drug Screen. Data for tumor model L1210 Leukemia (intraperitoneal) in B6D2F1 (BDF1) mice
Details: endpoint: mean survival time, higher = longer survival
Method in brief: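 Transplanted-tumor mice were given test agent; controls received vehicle only. Survival readings from the two groups were divided (treated over control).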

[1] = dose: 100.0 mg/kg/injection, schedule: Q04DX003 (ip), vehicle: Klucel (hydroxypropylcellulose) (HPC)
[2] = dose: 100.0 mg/kg/injection, schedule: Q01DX001 (ip), vehicle: saline
[3] = dose: 200.0 mg/kg/injection, schedule: Q01DX001 (ip), vehicle: saline
[4] = dose: 400.0 mg/kg/injection, schedule: Q01DX001 (ip), vehicle: saline
[5] = dose: 100.0 mg/kg/injection, schedule: Q01DX009 (ip), vehicle: saline with Tween-80
[6] = dose: 200.0 mg/kg/injection, schedule: Q01DX009 (ip), vehicle: saline with Tween-80
[7] = dose: 100.0 mg/kg/injection, schedule: Q04DX003 (ip), vehicle: saline with Tween-80
[8] = dose: 200.0 mg/kg/injection, schedule: Q04DX003 (ip), vehicle: saline with Tween-80
[9] = dose: 400.0 mg/kg/injection, schedule: Q04DX003 (ip), vehicle: saline with Tween-80
[10] = dose: 25.0 mg/kg/injection, schedule: Q01DX009 (ip), vehicle: saline
[11] = dose: 50.0 mg/kg/injection, schedule: Q01DX009 (ip), vehicle: saline

Measured: T/C

CCCCCCCCCCCCCCN(C)C
inactive: dose: 25.0 mg/kg/injection, schedule: Q04DX003 (ip), vehicle: Klucel (hydroxypropylcellulose) (HPC) 107 % of control | dose: 50.0 mg/kg/injection, schedule: Q04DX003 (ip), vehicle: Klucel (hydroxypropylcellulose) (HPC) 108 % of control | [1] 94 % of control and 96 % of control

Cc1cn(C2OC(CO)C(O)C(O)C2O)c(=O)[nH]c1=O (stereo unspecified)
inactive: [2] 97 % of control | [3] 97 % of control | [4] 94 % of control

CCOC(OCC)c1ccccc1 (tested in a mixture with another compound)
inactive: [5] 100 % of control | [6] 100 % of control | dose: 400.0 mg/kg/injection, schedule: Q01DX009 (ip), vehicle: saline with Tween-80 94 % of control

CCN(CC)C(=O)N(CC)C(=O)CN(C)C
inactive: dose: 100.0 mg/kg/injection, schedule: Q04DX003 (ip), vehicle: saline 102 % of control | dose: 200.0 mg/kg/injection, schedule: Q04DX003 (ip), vehicle: saline 102 % of control | dose: 400.0 mg/kg/injection, schedule: Q04DX003 (ip), vehicle: saline 96 % of control

C/C=C/C(OC(C)=O)OC(C)=O
inactive: dose: 50.0 mg/kg/injection, schedule: Q01DX009 (ip), vehicle: saline with Tween-80 101 % of control | [5] 101 % of control | [6] 101 % of control

O=C1c2ccccc2C(=O)N1C/C=C/Cl
inactive: [7] 104 % of control | [8] 108 % of control | [9] 101 % of control

Nc1nc2nc(N=Nc3ccc(N=Nc4nc5nc(N)[nH]c(=O)c5[nH]4)cc3)[nH]c2c(=O)[nH]1
inactive: [1] 91 % of control | dose: 200.0 mg/kg/injection, schedule: Q04DX003 (ip), vehicle: Klucel (hydroxypropylcellulose) (HPC) 99 % of control | dose: 400.0 mg/kg/injection, schedule: Q04DX003 (ip), vehicle: Klucel (hydroxypropylcellulose) (HPC) 88 % of control

CCOC(=O)C1CCc2ccccc2CC1
inactive: dose: 200.0 mg/kg/injection, schedule: Q04DX003 (ip), vehicle: acetone 100 % of control

CCCCc1ccc(-n2c(C)c(COC(=O)NC)c(COC(=O)NC)c2C)cc1
inactive: dose: 3.12 mg/kg/injection, schedule: Q01DX009 (ip), vehicle: Klucel (hydroxypropylcellulose) (HPC) 122 % of control | dose: 6.25 mg/kg/injection, schedule: Q01DX009 (ip), vehicle: Klucel (hydroxypropylcellulose) (HPC) 122 % of control

COc1ccccc1CN1CCCN(Cc2ccccc2OC)C1c1cc(OC)c(O)c(OC)c1
inactive: dose: 100.0 mg/kg/injection, schedule: Q01DX001 (ip), vehicle: carboxymethylcellulose (CMC) 98 % of control | dose: 200.0 mg/kg/injection, schedule: Q01DX001 (ip), vehicle: carboxymethylcellulose (CMC) 91 % of control | dose: 400.0 mg/kg/injection, schedule: Q01DX001 (ip), vehicle: carboxymethylcellulose (CMC) 96 % of control

C=C1C(=O)OC2C1CCC(C)C1(O)C=CC(=O)C21C (stereo unspecified)
inactive: dose: 6.25 mg/kg/injection, schedule: Q01DX009 (ip), vehicle: saline 98 % of control | dose: 12.5 mg/kg/injection, schedule: Q01DX009 (ip), vehicle: saline 98 % of control | [10] 101 % of control | [11] 103 % of control

CCOC(COC(=O)c1ccccc1C(=O)O)c1ccccc1 (stereo unspecified)
inactive: [7] 94 % of control | [8] 97 % of control | [9] 92 % of control

COc1ccc(/C=C2\N=C(c3ccco3)OC2=O)cc1Br
inactive: dose: 100.0 mg/kg/injection, schedule: Q01DX009 (ip), vehicle: Klucel (hydroxypropylcellulose) (HPC) 94 % of control | dose: 200.0 mg/kg/injection, schedule: Q01DX009 (ip), vehicle: Klucel (hydroxypropylcellulose) (HPC) 94 % of control | dose: 400.0 mg/kg/injection, schedule: Q01DX009 (ip), vehicle: Klucel (hydroxypropylcellulose) (HPC) 91 % of control

C[n+]1c(-c2ccc(Cl)cc2Cl)c2cc(N)ccc2c2ccccc21
inactive: dose: 3.12 mg/kg/injection, schedule: Q01DX009 (ip), vehicle: water 100 % of control | dose: 6.25 mg/kg/injection, schedule: Q01DX009 (ip), vehicle: water 91 % of control | dose: 12.5 mg/kg/injection, schedule: Q01DX009 (ip), vehicle: water 102 % of control and 105 % of control | dose: 12.5 mg/kg/injection, schedule: Q04DX003 (ip), vehicle: water 100 % of control | dose: 25.0 mg/kg/injection, schedule: Q01DX009 (ip), vehicle: water 120 % of control and 86 % of control | dose: 25.0 mg/kg/injection, schedule: Q04DX003 (ip), vehicle: water 90 % of control

c1nc([N+]23CCC(CC2)CC3)c2[nH]cnc2n1
inactive: dose: 5.0 mg/kg/injection, schedule: Q01DX001 (ip), vehicle: saline 111 % of control | dose: 10.0 mg/kg/injection, schedule: Q01DX001 (ip), vehicle: saline 103 % of control | dose: 20.0 mg/kg/injection, schedule: Q01DX001 (ip), vehicle: saline 113 % of control | dose: 40.0 mg/kg/injection, schedule: Q01DX001 (ip), vehicle: saline 97 % of control | dose: 80.0 mg/kg/injection, schedule: Q01DX001 (ip), vehicle: saline 108 % of control

CC(C)N=C(NC(C)C)c1ccc(NC(=O)c2ccc(C(=O)Nc3ccc(C(=NC(C)C)NC(C)C)cc3)cc2)cc1
inactive: dose: 15.5 mg/kg/injection, schedule: Q01DX Z (ip), vehicle: methylcellulose (MC) 103 % of control

Nc1ncnc2c1ncn2C1OC(CO)C(N)C1O (stereo unspecified)
inactive: dose: 1.3 mg/kg/injection, schedule: Q01DX Z (ip), vehicle: carboxymethylcellulose (CMC) 105 % of control | dose: 2.0 mg/kg/injection, schedule: Q01DX Z (ip), vehicle: carboxymethylcellulose (CMC) 108 % of control | dose: 3.0 mg/kg/injection, schedule: Q01DX Z (ip), vehicle: carboxymethylcellulose (CMC) 113 % of control

CC(=N\NC(N)=S)/C(=N/NC(N)=S)c1ccccc1
inactive: dose: 15.0 mg/kg/injection, schedule: Q01DX Z (ip), vehicle: carboxymethylcellulose (CMC) 107 % of control | dose: 30.0 mg/kg/injection, schedule: Q01DX Z (ip), vehicle: carboxymethylcellulose (CMC) 97 % of control | dose: 60.0 mg/kg/injection, schedule: Q01DX Z (ip), vehicle: carboxymethylcellulose (CMC) 95 % of control and 90 % of control | dose: 120.0 mg/kg/injection, schedule: Q01DX Z (ip), vehicle: carboxymethylcellulose (CMC) 93 % of control and 91 % of control | dose: 120.0 mg/kg/injection, schedule: Q01DX Z (oral), vehicle: carboxymethylcellulose (CMC) 110 % of control | dose: 240.0 mg/kg/injection, schedule: Q01DX Z (oral), vehicle: carboxymethylcellulose (CMC) 100 % of control | dose: 480.0 mg/kg/injection, schedule: Q01DX Z (ip), vehicle: carboxymethylcellulose (CMC) 88 % of control | dose: 480.0 mg/kg/injection, schedule: Q01DX Z (oral), vehicle: carboxymethylcellulose (CMC) 115 % of control | dose: 960.0 mg/kg/injection, schedule: Q01DX Z (oral), vehicle: carboxymethylcellulose (CMC) 104 % of control

CCCCCC[Si](Br)(CCCCCC)CCCCCC
inactive: [10] 102 % of control | [11] 102 % of control | [2] 98 % of control | dose: 100.0 mg/kg/injection, schedule: Q01DX009 (ip), vehicle: saline 98 % of control | [3] 93 % of control | [4] 96 % of control

O=C(O)COc1cc(Cl)c(Cl)cc1Cl (tested in a mixture with another compound)
inactive: dose: 25.0 mg/kg/injection, schedule: Q01DX001 (ip), vehicle: saline 110 % of control | dose: 50.0 mg/kg/injection, schedule: Q01DX001 (ip), vehicle: saline 93 % of control

CC#CC(=O)c1ccccc1
inactive: dose: 7.5 mg/kg/injection, schedule: Q04DX003 (ip), vehicle: saline 97 % of control | dose: 15.0 mg/kg/injection, schedule: Q04DX003 (ip), vehicle: saline 94 % of control | dose: 30.0 mg/kg/injection, schedule: Q04DX003 (ip), vehicle: saline 95 % of control

CCOC(=O)CCCc1ccccc1
inactive: [7] 107 % of control | [8] 90 % of control | [9] 93 % of control

CNC(=O)C1=Cc2cc(Cl)ccc2OC1
inactive: dose: 75.0 mg/kg/injection, schedule: Q04DX003 (ip), vehicle: saline with Tween-80 98 % of control | dose: 150.0 mg/kg/injection, schedule: Q04DX003 (ip), vehicle: saline with Tween-80 92 % of control | dose: 300.0 mg/kg/injection, schedule: Q04DX003 (ip), vehicle: saline with Tween-80 95 % of control

O=C1CCN2CCC(=O)c3c(Cl)ccc1c32
inactive: dose: 100.0 mg/kg/injection, schedule: Q01DX001 (ip), vehicle: other 100 % of control | dose: 200.0 mg/kg/injection, schedule: Q01DX001 (ip), vehicle: other 97 % of control | dose: 400.0 mg/kg/injection, schedule: Q01DX001 (ip), vehicle: other 100 % of control
